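Compound exposure: 48 hours, 5 concentrations, 96-well plates. At the GI50, growth is halved.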 Activity calls are given as the source filed them. No stated cut-off is given here; in the data, active = GI50 up to about 1.1 µM and inactive = higher.
Experiments:
Assay in all cases: NCI anticancer screen, dose series, 48 h
NCI-H23 = system: NCI-H23
SN12C = system: SN12C
K562 = system: K562
MOLT-4 = system: MOLT-4
A549 = system: A549
HCT-15 = system: HCT-15
OVCAR-5 = system: OVCAR-5
TK-10 = system: TK-10
SK-OV-3 = system: SK-OV-3
SR = system: SR
786-0 = system: 786-0
SNB-78 = system: SNB-78
HCT-116 = system: HCT-116
HOP-18 = system: HOP-18
HL-60 = system: HL-60
Malme-3M = system: Malme-3M
NCI-H460 = system: NCI-H460
NCI-H522 = system: NCI-H522
SF-268 = system: SF-268
OVCAR-4 = system: OVCAR-4
SF-539 = system: SF-539
HOP-62 = system: HOP-62
IGROV-1 = system: IGROV-1
RPMI-8226 = system: RPMI-8226
UACC-257 = system: UACC-257
DLD-1 = system: DLD-1
DMS-273 = system: DMS-273
M14 = system: M14
A498 = system: A498
SK-MEL-5 = system: SK-MEL-5
SK-MEL-2 = system: SK-MEL-2
SW-620 = system: SW-620
HOP-92 = system: HOP-92
SNB-75 = system: SNB-75
U-251 = system: U-251
COLO 205 = system: COLO 205
HT-29 = system: HT-29
UO-31 = system: UO-31
ACHN = system: ACHN
SF-295 = system: SF-295
KM12 = system: KM12
OVCAR-3 = system: OVCAR-3
XF498 = system: XF498
UACC-62 = system: UACC-62
EKVX = system: EKVX
LOX IMVI = system: LOX IMVI
OVCAR-8 = system: OVCAR-8
CAKI-1 = system: CAKI-1
RXF 393 = system: RXF 393
SK-MEL-28 = system: SK-MEL-28
NCI-H226 = system: NCI-H226
M19-MEL = system: M19-MEL
CCRF-CEM = system: CCRF-CEM
KM-20L2 = system: KM-20L2
LXFL 529 = system: LXFL 529
HCC 2998 = system: HCC 2998
SNB-19 = system: SNB-19
DMS-114 = system: DMS-114

Measured: GI50

c1ccc2c(CNCCCCCCCCCCCCNCc3cccc4ccccc34)cccc2c1
active: K562 0.467 µM | SR 1.11 µM | RPMI-8226 1.04 µM
inactive: NCI-H23 1.51 µM | SN12C 3.53 µM | MOLT-4 1.22 µM | A549 1.85 µM | OVCAR-5 1.54 µM | TK-10 2.14 µM | SK-OV-3 13.3 µM | 786-0 1.81 µM | SNB-78 1.9 µM | HCT-116 1.61 µM | HOP-18 2.84 µM | HL-60 1.47 µM | Malme-3M 2.21 µM | NCI-H460 1.53 µM | NCI-H522 1.88 µM | SF-268 2.22 µM | OVCAR-4 1.58 µM | SF-539 1.58 µM | HOP-62 2.14 µM | IGROV-1 1.84 µM | UACC-257 1.78 µM | DLD-1 1.6 µM | DMS-273 91.8 µM | M14 1.85 µM | A498 6.08 µM | SK-MEL-5 1.83 µM | SK-MEL-2 1.59 µM | SW-620 1.79 µM | HOP-92 1.88 µM | SNB-75 1.79 µM | U-251 1.77 µM | COLO 205 > 100 µM | HT-29 1.64 µM | UO-31 1.64 µM | ACHN 1.91 µM | SF-295 19.5 µM | KM12 1.61 µM | OVCAR-3 1.85 µM | XF498 1.69 µM | UACC-62 1.82 µM | EKVX 3.1 µM | LOX IMVI 1.22 µM | OVCAR-8 1.63 µM | CAKI-1 1.92 µM | RXF 393 1.36 µM | SK-MEL-28 1.95 µM | NCI-H226 2.39 µM | M19-MEL 1.81 µM | CCRF-CEM 1.26 µM | KM-20L2 1.84 µM | LXFL 529 1.83 µM
1.66 µM: HCT-15

CCOC(=O)C1(C#N)C(c2ccccc2)CC(O)(c2ccc(OC)cc2)C(C(=O)c2ccc(OC)cc2)C1c1ccccc1 (centres undefined)
inactive: NCI-H23 > 100 µM | SN12C > 100 µM | K562 > 100 µM | MOLT-4 > 100 µM | A549 > 100 µM | OVCAR-5 > 100 µM | TK-10 > 100 µM | SK-OV-3 > 100 µM | SR > 100 µM | 786-0 > 100 µM | SNB-78 > 100 µM | HCT-116 > 100 µM | HOP-18 15.6 µM | HL-60 > 100 µM | Malme-3M > 100 µM | NCI-H460 > 100 µM | NCI-H522 > 100 µM | SF-268 > 100 µM | OVCAR-4 > 100 µM | HOP-62 > 100 µM | IGROV-1 > 100 µM | HCC 2998 > 100 µM | RPMI-8226 > 100 µM | SNB-19 32.4 µM | UACC-257 > 100 µM | DLD-1 > 100 µM | DMS-273 > 100 µM | M14 > 100 µM | DMS-114 > 100 µM | SK-MEL-5 > 100 µM | SK-MEL-2 > 100 µM | SW-620 > 100 µM | SNB-75 27.7 µM | U-251 > 100 µM | COLO 205 > 100 µM | HT-29 > 100 µM | UO-31 74.6 µM | ACHN > 100 µM | SF-295 > 100 µM | KM12 > 100 µM | OVCAR-3 > 100 µM | UACC-62 > 100 µM | EKVX > 100 µM | LOX IMVI > 100 µM | OVCAR-8 > 100 µM | CAKI-1 98.2 µM | RXF 393 > 100 µM | SK-MEL-28 > 100 µM | NCI-H226 > 100 µM | M19-MEL > 100 µM | CCRF-CEM > 100 µM | KM-20L2 > 100 µM | LXFL 529 > 100 µM
> 100 µM: HCT-15

— ChEMBL document CHEMBL1201862, “PubChem BioAssay data set” (2004)
